Consider three compounds from EP4653443A1, “STEREOISOMER AND DEUTERATED DERIVATIVE OF PYRAZOLOQUINAZOLINE COMPOUND AND USE” (Phil Rivers Technology Co., Ltd, priority 2023, dated 2024).

The nature of data set [1]: Pharmacokinetic study in mice (IV and PO, plasma LC-MS/MS).
Procedure: The objective of this study is to investigate the pharmacokinetic properties of the disclosed compounds after tail vein intravenous injection (IV) and oral administration (PO) in female CD1 mice. Plasma was sampleed at 0, 0.083, 0.25, 0.5, 1, 2, 4, 7 and 24 hours post-dosing, and the drug concentrations in plasma at different time points were detected by LC-MS/MS, and the relevant pharmacokinetic parameters were calculated using WinNonlin software.
Experimental female CD1 mice were purchased from SPF Laboratory Animal Technology Co., Ltd., aged 6-8 weeks with body weights of 20-30 g. The female CD1 mice were housed in a controlled environment (set temperature at 20-25°C and relative humidity at 40-70%). A 12-hour light/12-hour dark cycle was maintained unless interrupted by study-related events.
Compound solutions are prepared in an ultra-clean workbench and prepared immediately before use, and mixed thoroughly prior to use to ensure formulation homogeneity.
Vehicle composition: 10% DMSO+90% (20%SBE-β-CD) Table 4. Doses Used in IV Administration
Vehicle composition: 10% DMSO + 90% (20%SBE-β-CD) Table 5. Doses Used in PO Administration
Vehicle composition: 0.5% MC + 1% Tween-20 Table 6. Doses Used in PO Administration
Prior to the experiment, the animals were randomly grouped. The mice were fasted for 12 hours before drug administration, and free feeding was resumed 4 hours after administration.
All blood samples were transferred into plastic microcentrifuge tubes containing anticoagulant (EDTA-K2), and then centrifuged at 4000 g for 5 minutes at 4°C. The supernatant was transferred into a microcentrifuge tube without anticoagulant, and the plasma was stored in a -75±15°C refrigerator until detection.
The blood samples were purified by HPLC and analyzed by mass spectrometry to obtain the plasma concentration-time curve of the disclosed compound.
The pharmacokinetic parameters were estimated by non-compartmental model method (calculated by Phoenix WinNonlin software).
Another data set deals with HCT116 cells. It is filed as in vivo. The following applies: for TGI: test endpoint (PG-D22), TGITV. As to the method: • Balb/c nude mice: SPF grade, female, 6-8 weeks old, weighing 16-20 g, purchased from SPF (Beijing) Biotechnology Co., Ltd. • HCT116 cells: purchased from ATCC;
HCT116 cells were cultured in RPMI-1640 medium containing inactivated 10% fetal bovine serum, 100 U/mL penicillin, 100 µg/mL streptomycin and 2 mM glutamine in an incubator at 37°C with 5% CO2. Once the cells reached confluence, they were subcultured into new flasks. The tumor cells in the logarithmic growth phase were used for inoculation of tumors in vivo.
The tumor cells were washed twice with PBS, and the cell concentration was adjusted to 5×10^7/ml. The resuspended tumor cells were inoculated subcutaneously in the right flank of the experimental animals at 100 µL/mouse, i.e. 5×10^6/mouse. When the tumor grew to an average tumor volume of […], the animals were grouped for drug administration according to the tumor volume, with a total of 7 groups, 8 animals in each group. The first day of group drug administration was recorded as PG-D0. Table 25. Administration Schedule
During the administration, the health status of the animals is monitored.
From grouping until the end of the experiment, mouse body weight was measured every 3 days using an electronic balance.
From grouping until the end of the experiment, the long and short diameters of the mouse tumors were measured every 3 days using an electronic vernier caliper, and the volume was calculated using the formula: Volume (TV) = 0.5 × long diameter × (short diameter)^2.
RTV is the relative tumor volume, that is, the ratio of the tumor volume after administration to that before administration.
Graphpad prism 8 statistical software was used to perform statistical analysis of tumor volume and tumor weight among groups using the One-Way ANOVA test (homogeneity of variance), and p < 0.05 was considered statistically significant.

For data set [2], the system named is pancreatic cancer cell line (PSN1). As to the kind of experiment: Proliferation inhibitory activity on cell line PSN1 (CellTiter-Glo, 72 hours). The following applies: for IC50: Homo sapiens, PSN1 cell proliferation; for Max Inhibition Percentage: PSN1 cells. It is filed as cell-based. As to the method: • a) Adherent cells need to be digested and centrifuged, while suspension cells can be directly centrifuged; • b) Resuspend with complete culture medium and count using an automatic cell counter; • c) Plate 6,000 cells per well for PSN1, and dilute the cell suspension to the required density; • d) Add 100 µL of cells per well, and culture overnight at 37°C in a 5% CO2 incubator to stabilize and balance the cells.
• a) Prepare the compound with DMSO as a solution of 200-fold final concentration; • b) Dilute the 200-fold compound to a 3-fold final concentration with complete culture medium; • c) Add 50 µL of the compound per well, use wells with the same volume of culture medium as controls, and continue culturing in a 37°C, 5% CO2 incubator for 72 hours.
• a) Equilibrate the cell plate and CTG reagent to room temperature; • b) Add 30 µL of CellTiter-Glo® reagent per well; • c) Incubate at room temperature for 15 minutes; • d) Detect with a microplate reader.
• 1) Calculate IC50 using GraphPad Prism 8; • 2) %Inh = (1-(Raw data - Meanmin) / (Meanmax - Meanmin))×100; • 3) Meanmax is the positive control well with only cells and the same volume of culture medium; • 4) Meanmin is the negative control well with only culture medium; • 5) Raw data refers to the signal values of wells with added compounds. For two replicate wells, they are denoted as Raw1 and Raw2.
(ATP-based viability assays read luminescence as a measure of living cells.)

[3] abbreviates: 30 mg/kg p.o. q.d. 10 consecutive days.
Setting [4] is: 60 mg/kg p.o. q.d. 10 consecutive days.

Where two headings read alike, the source gives them in different places.

Broadly, the IC50 is the concentration that gives 50% inhibition. Low readings indicate greater potency in that assay, high ones weaker potency in that assay.

`[2H]C1([2H])CN(c2ccc(OC(F)(F)F)c(Nc3ncc4c(n3)-c3c(c(C(N)=O)nn3CCO)CC4)c2)C([2H])([2H])[C@H]2CCCN21` [CPD04] yielded a F in data set [1] (PO 10 mg/kg vs IV 10 mg/kg) of 42.8%. Also, the values for the TGI in the data set on HCT116 cells (setting [3]) and in the data set on HCT116 cells (setting [4]) were 7.6% and 30.5%, respectively. The compound also gave a half-maximal inhibitory concentration (IC50) in data set [2] of 105 nM. Further, the “Max Inhibition Percentage” value amounted to 87.6 in data set [2] (first column of this head) and 1.3 in data set [2] (second column of this head).

In data set [1] (PO 10 mg/kg vs IV 10 mg/kg), `[2H]C1([2H])N(C)C([2H])([2H])C([2H])([2H])N(c2ccc(OC(F)(F)F)c(Nc3ncc4c(n3)-c3c(c(C(N)=O)nn3CCO)CC4)c2)C1([2H])[2H]` [CPD06] showed an F of 43.1%. Also, the TGI with HCT116 cells (setting [3]) stood at 42.4%; with HCT116 cells (setting [4]) it was 75.6%. Inhibition in data set [2] was half-maximal at 57 nM (IC50). Also, the entries for the “Max Inhibition Percentage” value in data set [2] (first column of this head) and in data set [2] (second column of this head) were 93.7 and 13.7, respectively.

In the case of `CN1CCN(c2ccc(OC(F)(F)F)c(Nc3ncc4c(n3)-c3c(c(C(N)=O)nn3CCO)CC4)c2)CC1` [NMS-P937, onvansertib, reference compound], the F was 20.5% in data set [1] (PO 5 mg/kg vs IV 2 mg/kg) and 27.1% in data set [1] (PO 10 mg/kg vs IV 10 mg/kg). Besides, the results for the TGI in the data set with HCT116 cells (setting [3]) and with HCT116 cells (setting [4]) were 44.1% and 64.2%, respectively. In addition, the mice died result in the data set on HCT116 cells (60 mg/kg p.o. q.d., 8 mice per group) was “three”. Moreover, half-maximal inhibition in data set [2] (IC50) required 53.7 nM. Moreover, the “Max Inhibition Percentage” value is reported as 85.9 in data set [2] (first column of this head) and 2.3 in data set [2] (second column of this head).
